According to patent US5958938A, “Bis-pyrido[4,3-b]carbazole compounds” (Adir et Compagnie, priority 1997, dated 1999):
Like-named read-outs stand apart in the source and are kept apart here.

Tests used:
[1] = tested on: human pulmonary carcinoma, A 549; test: Cytotoxicity, Microculture Tetrazolium Assay, A 549; format: cell-based; settings: for IC50: Homo sapiens, A549, 96 h, read-out: IC50 (cytotoxicity)
Excerpt: (§1) Three cell lines were used:
(§2) The cells are distributed on microplates and exposed to the cytotoxic compounds.

murine leukaemia, L 1210 = test: Cytotoxicity, Microculture Tetrazolium Assay, L 1210; format: cell-based; settings: Mus musculus, L1210, 48 h, read-out: IC50 (cytotoxicity)
Excerpt: as §1, §2

murine melanoma, B 16 = test: Cytotoxicity, Microculture Tetrazolium Assay, B 16; format: cell-based; settings: for IC50: Mus musculus, read-out: IC50 (cytotoxicity)
Excerpt: as §1, §2

P 388 (murine leukaemia) = test: In vivo anti-tumor activity, P 388 i.p.; parameters: species or system female BDF1 mice; settings: for Long-term survivors/total no. of mice: survivors at 60 days
Description: Line P 388 (murine leukaemia) is supplied by The National Cancer Institute (Frederick, USA). The tumor cells (10^6 cells) are inoculated on day 0 into the peritoneal cavity of female BDF1 mice (Iffa-Credo, France) weighing from 18 to 20 g (groups of 6 or 7 animals).
The products are administered intravenously on day 1 or on days 1, 5 and 9 at the doses indicated.
The anti-tumor activity is expressed as % T/C: [formula]
The animals surviving at 60 days (long-term survivors) are indicated.

B 16 (murine melanoma) = test: In vivo anti-tumor activity, B 16 i.p.; parameters: species or system BDF1 mouse; settings: for % T/C / Long-term survivors/total no. of mice: D1-9, i.p.; for Long-term survivors/total no. of mice: survivors at 90 days
Description: Line B 16 (murine melanoma) is supplied by The National Cancer Institute (Frederick, USA). The tumor is maintained by successive subcutaneous grafts of tumor fragments. On day 0, the tumors are broken up and homogenised in 0.9% NaCl (1 g, of tumor in 10 ml) and 0.5 ml of the homogenate is injected into the peritoneal cavity of each BDF1 mouse. The products are administered intraperitoneally at the doses indicated once a day for 9 days (D1-9).
The anti-tumor activity is expressed as % T/C, as defined above. The animals surviving at 90 days (long-term survivors) are indicated.

[2] = D1,5,9, i.v., optimum dose 80 mg/kg
[3] = D1, i.v., optimum dose 80 mg/kg
[4] = B16, 96 h, B 16, 4 days incubation
[5] = D1,5,9, i.v., optimum dose 10 mg/kg
[6] = D1, i.v., optimum dose 10 mg/kg

## COc1cccc2c1C(=O)c1c(O)c3c(c(O)c1C2=O)C[C@@](O)(C(=O)CO)C[C@@H]3O[C@H]1C[C@H](N)[C@H](O)[C@H](C)O1 [Reference B, adriamycin, reference compound]
[1]
  IC50: 39.4 nM
Murine leukaemia, L 1210
  IC50: 24.3 nM
Murine melanoma, B 16; 96 h
  IC50: 6.8 nM

## Cc1c2ccnc(C(=O)NCCN(C)C)c2cc2c3cc(O)ccc3n(C)c12 [Reference A, 1-(N,N-dimethylaminoethylaminocarbamoyl)-5,6-diiethyl-9-hydroxy-6H-pyrido-[4,3-b]carbazole, reference compound]
[1]; A 549, 4 days incubation
  IC50: 30.5 nM
P 388 (murine leukaemia); [2]
  % T/C: 320%
  Long-term survivors/total no. of mice: 2/6
P 388 (murine leukaemia); [3]
  % T/C: 221%
  Long-term survivors/total no. of mice: 0/6
Murine leukaemia, L 1210; L 1210, 2 days incubation
  IC50: 7.8 nM
Murine melanoma, B 16; [4]
  IC50: 5.1 nM
B 16 (murine melanoma); optimum dose 10 mg/kg
  % T/C: 190%
  Long-term survivors/total no. of mice: 0/7
B 16 (murine melanoma); melanoma B 16 model, in words
  Long-term survivors: none

## Cc1c2c(C(=O)NCCN(C)C)nccc2c(C)c2c1c1cc(OC(=O)CCCCC(=O)Oc3ccc4c(c3)c3c(C)c5c(C(=O)NCCN(C)C)nccc5c(C)c3n4C)ccc1n2C [Example 1, bis[1-(2-dimethylaminoethylcarbamoyl)-5,6, 11-trimethyl-6H-pyrido[4,3-b]carbazol-9-yl] ester of hexanedloic acid]
[1]; A 549, in words
  Cytotoxicity compared with reference products A and B: more cytotoxic than reference products A and B
[1]; A 549 versus L 1210, in words
  Cytotoxicity compared with line L 1210: greater for lines B 16 and A 549 than for line L 1210
[1]; A 549, 4 days incubation
  IC50: 17.6 nM
P 388 (murine leukaemia); [5]
  % T/C: > 582%
  Long-term survivors/total no. of mice: 3/6
P 388 (murine leukaemia); [6]
  % T/C: 252%
  Long-term survivors/total no. of mice: 1/6
P 388 (murine leukaemia); leukaemia P 388 model, in words
  Anti-tumor activity compared with reference product A: more potent than, and as active as, reference product A
Murine leukaemia, L 1210; L 1210, 2 days incubation
  IC50: 73.5 nM
Murine melanoma, B 16; B 16, in words
  Cytotoxicity compared with reference products A and B: more cytotoxic than reference products A and B
Murine melanoma, B 16; B 16 versus L 1210, in words
  Cytotoxicity compared with line L 1210: greater for lines B 16 and A 549 than for line L 1210
Murine melanoma, B 16; [4]
  IC50: 3 nM
B 16 (murine melanoma); optimum dose 5 mg/kg
  % T/C: 429%
  Long-term survivors/total no. of mice: 3/7
B 16 (murine melanoma); melanoma B 16 model, at the optimum dose
  Long-term survivors: 3 long-term survivors
B 16 (murine melanoma); melanoma B 16 model, in words
  Anti-tumor activity: very active
